Source: US20260049072A1, “HETEROCYCLIC COMPOUND FOR INDUCING DEGRADATION OF MUTANT KRAS PROTEIN” (Astellas Pharma Inc., priority 2022, published 2026)

Key:
[1] = tested on: phosphorylation of ERK (Thr202/Tyr204); test: ERK phosphorylation inhibitory activity, cell ELISA, PA-TU-8902; format: cell-based; settings: Homo sapiens, PaTu 8902; PA-TU-8902 cells, 24 hours, 100% = 300 nM trametinib; read-out: IC50 (ERK phosphorylation inhibition)
Description: Test Example 2: Evaluation of ERK Phosphorylation Inhibitory Activity on Human KRAS G12V Mutant-Positive Pancreatic Cancer Line PA-TU-8902
The ERK phosphorylation inhibitory activities of subject compounds were evaluated by measuring phosphorylation of the 202th threonine (Thr202) and the 204th tyrosine (Tyr204) of ERK located downstream of the KRAS signal by cell ELISA.
PA-TU-8902 cells were seeded at 36 µL/well on a 384-well plate (from Greiner bio-one) to give 5.0×10^3 cells per well. The cell culture conditions were the same conditions as in Test Example 1-1.
The next day, the subject compounds (9 points having final concentrations in the range of 3 μM to 0.3 nM), trametinib (MEK inhibitor) of a final concentration of 300 nM as a positive control and DMSO, which was the solvent for the subject compounds, as a negative control were diluted 100-fold with a fresh medium and were each added at 4 μL per well, followed by culturing for 24 hours. After culturing, a 30% glyoxal solution (40% glyoxal [from Nacalai Tesque] was diluted with PBS) was quickly added at 30 μL per well, and the plate was allowed to stand for an hour and 30 minutes at room temperature to thus immobilize the cells. Then, the plate was centrifuged (110×g, seven seconds, hereinafter centrifugation was performed under the same conditions unless otherwise specified) to remove the supernatant, and 0.1% Triton X-100-containing PBS was added at 20 μL per well. After allowing the plate to stand for 10 minutes at room temperature, the supernatant was removed by centrifugation, and the same operation was further repeated. Next, 0.5% SDS-containing PBS was added at 20 μL per well. The plate was allowed to stand at room temperature for 30 minutes and was then centrifuged to remove the supernatant. Subsequently, a blocking solution (Intercept Blocking Buffer) was added at 20 μL per well, and the plate was allowed to stand for an hour at room temperature. The supernatant was removed by centrifugation, and an ERK (Thr202/Tyr204) phosphorylation antibody (Phospho-p44/42 MAPK (Erk 1/2) (Thr202/Tyr204) (D13.14.4E) XP Rabbit mAb; from Cell Signaling Technology) diluted 2,500-fold with the blocking solution was added at 15 μL per well as a primary antibody. The plate was allowed to stand at 4° C. overnight.
The next day, the plate was centrifuged to remove the supernatant, and 0.05% Tween-20-containing PBS (from Thermo Scientific; 20×PBS Tween-20 was diluted 20-fold with ion exchange water and used) was added at 50 μL per well. The supernatant was removed by centrifugation to thus wash each well. The washing was performed three times in total. After washing, an anti-rabbit IgG antibody diluted 1,000-fold with the blocking solution was added at 15 μL per well as a secondary antibody, and the plate was allowed to stand for an hour at room temperature. The plate was centrifuged to remove the supernatant, and each well was washed three times with 0.05% Tween-20-containing PBS in the same manner as after the primary antibody reaction. Centrifugation after the third washing was performed at 171×g for 17 seconds. After removing the supernatant, the plate was dried as it was with air at room temperature for three hours or more, and the 800-nm fluorescent signals were measured with Aerius.
With the signaling value at the time of addition of DMSO taken as 0% inhibition and with the signaling value at the time of addition of 300 nM trametinib taken as 100% inhibition, the 50% inhibition values (IC50) were calculated by Sigmoid-Emax model nonlinear regression analysis.

PA-TU-8902 xenograft = test: Anti-tumor activity in PA-TU-8902 xenograft mouse; format: in vivo; settings: 30 mg/kg, tail vein, twice a week for two weeks, male nude mice
Description: (§1) Test Example 4: Evaluation of Anti-Tumor Activity in Human KRAS G12V Mutant-Positive Pancreatic Cancer Line PA-TU-8902 or Human KRAS G12D Mutant-Positive Pancreatic Cancer Line PK-59 Xenograft Mouse
(§2) PA-TU-8902 cells or PK-59 cells (RIKEN BRC, RCB1901) were cultured using DMEM medium or RPMI-1640 medium containing 10% fetal bovine serum, respectively, in the presence of 5% CO2 at 37° C. The PA-TU-8902 cells or the PK-59 cells were collected and suspended in PBS, and two equivalents of VitroGel Hydrogel Matrix (from TheWell Bioscience) was added. A cell suspension prepared at 1.0-2.0×10^7 cells/mL was subcutaneously inoculated in a volume of 100 μL in 4- to 6-week-old male nude mice (BALB/c-nu (nu/nu), from The Jackson Laboratory Japan, Inc.). After about two weeks of the inoculation, the mice were divided into groups so that all the groups had approximately the same tumor volume and body weight, and administration of a subject compound was started on the next day. The test was conducted for five mice for each of a solvent group and a subject compound administration group. The solvent used was a solvent containing ethanol (from FUJIFILM Wako), an aqueous (2-hydroxypropyl)-β-cyclodextrin (HP-PCD) solution (from ROQUETTE), HCO-40 (from Nikko Chemicals Co., Ltd.) dissolved in a 5% glucose solution (from Otsuka Pharmaceutical) at a ratio of 4%, 0.5%, and 9%, respectively. The compound was dissolved using the solvent. The subject compound dissolved in the solvent or the solvent was administered into tail vein. The administration was performed once or twice a week for two weeks. The tumor size and the body weight were measured twice a week. The tumor volume was calculated by using the following formula.
(§3) [Tumor volume (mm^3)]=[Major axis of tumor (mm)]×[Minor axis of tumor (mm)]^2×0.5
(§4) The tumor growth inhibition (%) by the subject compound was calculated with the tumor volume of the subject compound administration group on the previous day of the start of the administration taken as 100% inhibition and the tumor volume of the solvent group of the day of the final measurement taken as 0% inhibition.

PK-59 xenograft = test: Anti-tumor activity in PK-59 xenograft mouse; format: in vivo; settings: 10 mg/kg, tail vein, once a week for two weeks, male nude mice
Description: as §1, §2, §3, §4

Row | IC50 [1] [nM] | SMILES | Anti-tumor activity at final measurement (PA-TU-8902 xenograft mouse), tumor growth inhibition (PA-TU-8902 xenograft) [% inhibition] | Anti-tumor activity at final measurement (PK-59 xenograft mouse), tumor growth inhibition (PK-59 xenograft) [% inhibition]
1 | 14 | CO[C@@H](C)COc1nc(NC2CN(C(=O)O[C@H]3C[C@@H](N(C)C)C3)C2)c2cc(C3CC3)c(-c3c(C)c(F)cc4[nH]ncc34)c(OCc3ccc(-c4cn([C@H](C(=O)N5C[C@H](O)C[C@H]5C(=O)N[C@@H](CO)c5ccc(-c6scnc6C)cc5)C(C)C)nn4)cc3)c2n1 (atropisomer, axis not shown; (M)) [Example 11, (1s,3R)-3-(dimethylamino)cyclobutyl 3-({(7M)-6-cyclopropyl-7-(6-fluoro-5-methyl-1H-indazol-4-yl)-8-{[4-(1-{(2S)-1-[(2S,4R)-4-hydroxy-2-({(1R)-2-hydroxy-1-[4-(4-methyl-1,3-thiazol-5-yl)phenyl]ethyl}carbamoyl)pyrrolidin-1-yl]-3-methyl-1-oxobutan-2-yl}-1H-1,2,3-triazol-4-yl)phenyl]methoxy}-2-[(2S)-2-methoxypropoxy]quinazolin-4-yl}amino)azetidine-1-carboxylate] | 73 | 95
2 | 18 | CO[C@@H](C)COc1cc(OC2CN(C(=O)NCCN(C)C)C2)c2cc(C3CC3)c(-c3c(C)c(F)cc4[nH]ncc34)c(OCc3ccc(-c4cn([C@H](C(=O)N5C[C@H](O)C[C@H]5C(=O)N[C@@H](CO)c5ccc(-n6cncn6)cc5)C(C)C)nn4)cc3)c2n1 (atropisomer, axis not shown; (M)) [Example 12, (4R)-1-[(2S)-2-(4-{4-[({(7M)-6-cyclopropyl-4-[(1-{[2-(dimethylamino)ethyl]carbamoyl}azetidin-3-yl)oxy]-7-(6-fluoro-5-methyl-1H-indazol-4-yl)-2-[(2S)-2-methoxypropoxy]quinolin-8-yl}oxy)methyl]phenyl}-1H-1,2,3-triazol-1-yl)-3-methylbutanoyl]-4-hydroxy-N-{(1R)-2-hydroxy-1-[4-(1H-1,2,4-triazol-1-yl)phenyl]ethyl}-L-prolinamide] | 61 | 63
